We go through 1 compound from US20190292603A1, “METHOD FOR PREDICTING THE RESPONSIVENESS OF A PATIENT TO A TREATMENT WITH mTOR INHIBITORS” (INSTITUT NATIONAL DE LA SANTE ET DE LA RECHERCHE MEDICALE, priority 2018, published 2019).

The test system of the assay is Eμ-Myc-GAPDHlow lymphoma. In words: Survival of OxPhos Eμ-Myc-GAPDHlow-bearing mice treated with Temsirolimus in vivo. To be noted: data not shown.

As for `CO[C@H]1C[C@@H]2CC[C@@H](C)[C@@](O)(O2)C(=O)C(=O)N2CCCC[C@H]2C(=O)O[C@H]([C@H](C)C[C@@H]2CC[C@@H](OC(=O)C(C)(CO)CO)[C@H](OC)C2)CC(=O)[C@H](C)/C=C(\C)[C@@H](O)[C@@H](OC)C(=O)[C@H](C)C[C@H](C)/C=C/C=C/C=C/1C` [Temsirolimus], the survival entry is on record as “significantly increases”.
